In EPA's CvTdb concentration-time database:

How the values were obtained:
Rat [1] = assay: concentration in plasma after dosing; conditions: 2 h; dosed: Gemfibrozil; 100 mg/kg; oral; Male; Sprague-Dawley
Rat [2] = assay: concentration in plasma after dosing; conditions: 24 h; dosed: Gemfibrozil; 50 mg/kg; oral; Male; Sprague-Dawley
Rat [3] = assay: concentration in plasma after dosing; conditions: 15 h; dosed: Gemfibrozil; 50 mg/kg; oral; Male; Sprague-Dawley
Rat [4] = assay: concentration in plasma after dosing; conditions: 10 h; dosed: Gemfibrozil; 4.29 mg/kg; oral; Male; Sprague-Dawley
Rat [5] = assay: concentration in plasma after dosing; conditions: 6 h; dosed: Gemfibrozil; 100 mg/kg; oral; Male; Sprague-Dawley
Rat [6] = assay: concentration in liver after dosing; conditions: 3 h; dosed: Fluorotelomer alcohol 8+2; 24 mg/kg; oral; Male; Harlan Sprague Dawley
Rat [7] = assay: concentration in brain after dosing; conditions: 0.5 h; dosed: Fluorotelomer alcohol 8+2; 80 mg/kg; oral; Female; Harlan Sprague Dawley
Rat [8] = assay: concentration in kidney after dosing; conditions: 6 h; dosed: Fluorotelomer alcohol 8+2; 80 mg/kg; oral; Female; Harlan Sprague Dawley
Rat [9] = assay: concentration in plasma after dosing; conditions: dosed: 678-39-7, 40 mg/kg, iv, Male, F344
Rat [10] = assay: concentration in plasma after dosing; conditions: 192 h; dosed: Fluorotelomer alcohol 8+2; 24 mg/kg; oral; Male; Harlan Sprague Dawley
Rat [11] = assay: concentration in kidney after dosing; conditions: 12 h; dosed: Fluorotelomer alcohol 8+2; 80 mg/kg; oral; Female; Harlan Sprague Dawley
Rat [12] = assay: concentration in kidney after dosing; conditions: 3 h; dosed: Fluorotelomer alcohol 8+2; 80 mg/kg; oral; Female; Harlan Sprague Dawley
Rat [13] = assay: concentration in plasma after dosing; conditions: dosed: Fluorotelomer alcohol 8+2, 12 mg/kg, oral, Male, Harlan Sprague Dawley
Rat [14] = assay: concentration in liver after dosing; conditions: 6 h; dosed: Perfluorooctane Sulfonate; 2 mg/kg; oral; Female; Harlan Sprague Dawley
Rat [15] = assay: concentration in liver after dosing; conditions: 6 h; dosed: Perfluorooctane Sulfonate; 2 mg/kg; oral; Female; Harlan Sprague Dawley; remark: listed apart in the source
Rat [16] = assay: concentration in liver after dosing; conditions: 3360 h; dosed: Perfluorooctane Sulfonate; 2 mg/kg; oral; Female; Harlan Sprague Dawley
Rat [17] = assay: concentration in liver after dosing; conditions: 864 h; dosed: Perfluorooctane Sulfonate; 2 mg/kg; oral; Female; Harlan Sprague Dawley
Rat [18] = assay: concentration in brain after dosing; conditions: 6 h; dosed: Perfluorooctane Sulfonate; 20 mg/kg; oral; Male; Harlan Sprague Dawley
Rat [19] = assay: concentration in liver after dosing; conditions: 1848 h; dosed: Perfluorooctane Sulfonate; 20 mg/kg; oral; Male; Harlan Sprague Dawley
Rat [20] = assay: concentration in kidney after dosing; conditions: 3360 h; dosed: Perfluorooctane Sulfonate; 20 mg/kg; oral; Male; Harlan Sprague Dawley
Rat [21] = assay: concentration in plasma after dosing; conditions: dosed: Perfluorooctane Sulfonate, 2 mg/kg, iv, Female, Harlan Sprague-Dawley
Rat [22] = assay: concentration in kidney after dosing; conditions: 864 h; dosed: Perfluorooctane Sulfonate; 20 mg/kg; oral; Male; Harlan Sprague Dawley
Rat [23] = assay: concentration in kidney after dosing; conditions: 3360 h; dosed: Perfluorooctane Sulfonate; 20 mg/kg; oral; Male; Harlan Sprague Dawley; remark: listed apart in the source
Rat [24] = assay: concentration in kidney after dosing; conditions: 864 h; dosed: Perfluorooctane Sulfonate; 2 mg/kg; oral; Female; Harlan Sprague Dawley
Rat [25] = assay: concentration in kidney after dosing; conditions: 3360 h; dosed: Perfluorooctane Sulfonate; 20 mg/kg; oral; Male; Harlan Sprague Dawley; remark: listed apart in the source
Rat [26] = assay: concentration in kidney after dosing; conditions: 6 h; dosed: Perfluorooctane Sulfonate; 2 mg/kg; oral; Female; Harlan Sprague Dawley
Rat [27] = assay: concentration in brain after dosing; conditions: 2 min; dosed: 2-Methyltetrahydrofuran; 40 mg/kg; iv; Female; Harlan Sprague Dawley
Rat [28] = assay: concentration in brain after dosing; conditions: 1.5 h; dosed: 2-Methyltetrahydrofuran; 40 mg/kg; iv; Male; Harlan Sprague Dawley
Rat [29] = assay: concentration in brain after dosing; conditions: 2 h; dosed: 2-Methyltetrahydrofuran; 40 mg/kg; iv; Male; Harlan Sprague Dawley
Rat [30] = assay: concentration in plasma after dosing; conditions: 2 h; dosed: 2-Methyltetrahydrofuran; 40 mg/kg; iv; Female; Harlan Sprague Dawley
Rat [31] = assay: concentration in plasma after dosing; conditions: 7 min; dosed: 2-Methyltetrahydrofuran; 40 mg/kg; iv; Male; Harlan Sprague Dawley
Rat [32] = assay: concentration in plasma after dosing; conditions: 1.5 h; dosed: 2-Methyltetrahydrofuran; 40 mg/kg; iv; Male; Harlan Sprague Dawley
Rat [33] = assay: concentration in plasma after dosing; conditions: 2 min; dosed: 2-Methyltetrahydrofuran; 40 mg/kg; iv; Female; Harlan Sprague Dawley
Rat [34] = assay: concentration in plasma after dosing; conditions: 7 min; dosed: 2-Methyltetrahydrofuran; 40 mg/kg; iv; Male; Harlan Sprague Dawley; remark: listed apart in the source
Rat [35] = assay: concentration in liver after dosing; conditions: 1 h; dosed: Perfluorohexanoic Acid; 80 mg/kg; oral; Female; Harlan Sprague Dawley
Rat [36] = assay: concentration in liver after dosing; conditions: 0.5 h; dosed: Perfluorohexanoic Acid; 80 mg/kg; oral; Male; Harlan Sprague Dawley
Rat [37] = assay: concentration in liver after dosing; conditions: 12 h; dosed: Perfluorohexanoic Acid; 80 mg/kg; oral; Male; Harlan Sprague Dawley
Rat [38] = assay: concentration in kidney after dosing; conditions: 6 h; dosed: Perfluorohexanoic Acid; 80 mg/kg; oral; Female; Harlan Sprague Dawley
Rat [39] = assay: concentration in plasma after dosing; conditions: dosed: Perfluorohexanoic Acid, 40 mg/kg, oral, Male, Harlan Sprague Dawley
Rat [40] = assay: concentration in plasma after dosing; conditions: 1.5 h; dosed: Perfluorohexanoic Acid; 40 mg/kg; iv; Male; F344
Rat [41] = assay: concentration in plasma after dosing; conditions: dosed: Perfluorohexanoic Acid, 40 mg/kg, oral, Male, Harlan Sprague Dawley; remark: listed apart in the source

Cc1ccc(C)c(OCCCC(C)(C)C(=O)O)c1 [Gemfibrozil]
Conditions | concentration in plasma [ng/mL]
Rat [1] | 5120
Rat [2] | 846
Rat [3] | 1550
Rat [4] | 405
Rat [5] | 13800

O=C(O)CCC(F)(F)C(F)(F)C(F)(F)C(F)(F)C(F)(F)C(F)(F)C(F)(F)F [Fluorotelomer acid 7+3]
Conditions | concentration in brain [ng/g] | concentration in kidney [ng/g] | concentration in liver [ng/g] | concentration in plasma [ng/mL]
Rat [6] | – | – | 2680 | –
Rat [7] | 114 | – | – | –
Rat [8] | – | 3960 | – | –
Rat [10] | – | – | – | 40.8
Rat [11] | – | 2750 | – | –
Rat [12] | – | 5820 | – | –

concentration in plasma [ng/mL]
Conditions | 0.25 h | 0.75 h | 6 h | 12 h
Rat [9] | 115 | – | 2200 | –
Rat [13] | – | 274 | – | 110

O=S(=O)([O-])C(F)(F)C(F)(F)C(F)(F)C(F)(F)C(F)(F)C(F)(F)C(F)(F)C(F)(F)F [Perfluorooctane Sulfonate]
Conditions | concentration in brain [ng/g] | concentration in kidney [ng/g] | concentration in liver [ng/g]
Rat [14] | – | – | 19800
Rat [15] | – | – | 24500
Rat [16] | – | – | 1350
Rat [17] | – | – | 8950
Rat [18] | 4810 | – | –
Rat [19] | – | – | 37900
Rat [20] | – | 13900 | –
Rat [22] | – | 19300 | –
Rat [23] | – | 4960 | –
Rat [24] | – | 2960 | –
Rat [25] | – | 10400 | –
Rat [26] | – | 8350 | –

Rat [21]
Conditions | concentration in plasma [ng/mL]
5 min | 5920
24 h | 5370

CC1CCCO1 (stereo unspecified) [2-Methyltetrahydrofuran]
Conditions | concentration in brain [ng/mL] | concentration in plasma [ng/mL]
Rat [27] | 38000 | –
Rat [28] | 6260 | –
Rat [29] | 7820 | –
Rat [30] | – | 9860
Rat [31] | – | 53800
Rat [32] | – | 11000
Rat [33] | – | 55300
Rat [34] | – | 41500

O=C(O)C(F)(F)C(F)(F)C(F)(F)C(F)(F)C(F)(F)F [Perfluorohexanoic Acid]
Conditions | concentration in kidney [ng/g] | concentration in liver [ng/g] | concentration in plasma [ng/mL]
Rat [35] | – | 41600 | –
Rat [36] | – | 67900 | –
Rat [37] | – | 2130 | –
Rat [38] | 2180 | – | –
Rat [40] | – | – | 336

concentration in plasma [ng/mL]
Conditions | 0.25 h | 3 h | 5 min | 6 h
Rat [39] | 44500 | – | – | 26700
Rat [41] | – | 48700 | 28800 | –
